The text below walks through data of patent publication US11166924B2, “N-methyl-d-aspartate receptor allosteric modulators and methods for their use” (Qingdao Primedicine Pharmaceutical Company, Ltd., priority 2016, dated 2021).

The structures appear in SMILES notation.

In the experiment the test system is GluN2A NMDARs. Nature of the experiment: NMDAR EPSC in brain slices of wild-type and GluN2A knockout mice. Further details: species or system mouse. The settings on record: FIG. 20. As to the method: Male and female wild-type or GluN2A KO mice 20-25-day old were anesthetized using Isoflurane and rapidly decapitated. Brains were removed and immersed for 30 sec in cold (2-4° C.) cutting solution containing: 92 mM NMDG, 2.5 mM KCl, 1.25 mM NaH2PO4, 30 mM NaHCO3, 20 mM HEPES, 4.5 mM D-glucose, 5 mM Na-ascorbate, 3 mM Na-pyruvate, 0.5 mM CaCl2, and 10 mM MgCl2. The brain was blocked in melted 3% agar-A (CAS #9002-18-0, Bio Basic Canada Inc.), then glued onto the slicing platform and sectioned coronally at 320 μm thickness with a vibratome (Leica VT 1000S) containing cold (2-4° C.) bubbled (95% O2/5% CO2) cutting solution. Sections that included the prefrontal cortex were transferred into continuously carbogenated pre-warmed (32-34° C.) cutting solution for a period of 12 min time for initial recovery. […]
A brain slice was transferred onto a recording chamber on an upright Nikon FN1 microscope and the chamber was continuously perfused with 32° C. carbogenated aCSF recording solution containing: 121.85 mM NaCl, 2.5 mM KCl, 1.2 mM NaH2PO4, 24 mM NaHCO3, 12.5 mM D-glucose, 5 mM Na-ascorbate, 3 mM Na-pyruvate, 2 mM CaCl2, 0.1 mM MgCl2. Pyramidal neurons were identified in layer V of the prefrontal cortex via video monitored infra-red differential interference contrast illumination microscopy using a CFI APO 40× W NIR objective (0.80 numerical aperture, 3.5 mm working distance). […]

With `CCOc1cc(Cl)c(Cl)c(/C=N/NC(=O)c2ccccc2Br)c1O` [Npam43, (E)-2-bromo-N′-(2,3-dichloro-5-ethoxy-6-hydroxybenzylidene)benzohydrazide], the “Effect on NMDAR EPSC, GluN2A KO mice” value (brain slices of GluN2A KO mice) was “no effect”. In addition, under “brain slices of wild-type mice”, the “Effect on NMDAR EPSC, WT mice” value was “clear potentiation of NMDAR EPSC”.
